Measurements taken from PubChem BioAssay AID2060486 (Molecular Pharmacology Branch, DTP, NCI, 2025).
pIC50: −log10 of the molar value.

Test system: IGROV1 complex spheroids (HUVEC, MSC), viability % test/control
Test: Anticancer human tumor IGROV1 cell line growth inhibition [GQUAD];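 note: spheroids exposed to compounds for 7 days before readout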
Conditions: for pIC50: curve of first compound; for viability, T/C: stronger effect = lower value
Text: DNA G-quadruplex Stabilizer Agents in Combinations in Complex Spheroids
A high-throughput screen of multi-cell type tumor spheroids was designed to identify active combinations of DNA G-quadruplex stabilizer agents and targeted small molecules. Complex spheroids include a stromal component modeled by human endothelial cells (HUVEC) and fibroblasts modeled by human mesenchymal stem cells (MSCs). The concentration ranges selected for each drug and investigational agent were based upon clinically achievable concentrations if the clinical Cmax of the agent was known.
Compounds. The drugs and investigational agents: pidnarulex (CX-5461; NSC782164), APTO-253 (NSC789042), BRACO-19 (NSC847499), peposertib (NSC802822), ceralasertib (NSC780249), elimusertib (NSC800525), camonsertib (NSC841442), AZD-1390 (NSC803789), olaparib (NSC753686), talazoparib (NSC767125), ART-558 (NSC835418), sotorasib (NSC818433), MRTX-1133 (NSC836407), SN-38 (NSC673596), topotecan (NSC609699), etoposide (NSC141540), doxorubicin (NSC123127), gemcitabine (NSC613327), 5-fluorouracil (NSC19893), paclitaxel (NSC125973), vemurafenib (NSC761431), panobinostat (NSC761190), R-306465 (JNJ-16241199; NSC773264), adavosertib (NSC754352), TP-3654 (NSC805149), carboplatin (NSC241240), KSQ-4279 (NSC840948), and staurosporine (NSC755774) were obtained from the National Cancer Institute (NCI) Developmental Therapeutics Program Chemical Repository (34). The FDA-approved anticancer drug set is available from the NCI Developmental Therapeutics Program. […] The stock solutions were prepared in dimethyl sulfoxide (DMSO, Sigma-Aldrich, St. Louis, MO, cat. D2650) at 800-fold the tested concentration and stored at -70 degrees C prior to their use. All drugs and investigational agents were tested over a range starting from a high concentration at or near the clinical Cmax and decreasing in half-log increments. If the clinical Cmax for an agent had not been determined, the highest concentration tested was 10 microM.
2.3 Cell Culture. All cells were maintained in an incubator at 37 degrees C and 5% CO2 with 95% humidity. The PDC lines were cultured according to standard operating procedures established by the NCI PDMR. All PDCs were thawed and cultured in Matrigel-coated flasks prepared with a working solution of 1X Ham's F-12 nutrient mix, without supplementation (Invitrogen, cat. 11765054), 100 U/mL penicillin-streptomycin (Invitrogen, cat. 15140122), and 2.5% Matrigel (Corning Inc., cat. 354248) for the first three passages. The 857933-349-R-J2-PDC line was cultured in 6C/Colon 1B media, which includes advanced DMEM/F-12 (Thermo Fisher Scientific, cat. 12634028), 10 mM HEPES (Thermo Fisher Scientific, cat. 15630080), 1X GlutaMAX supplement (Thermo Fisher Scientific, cat. 35050061), 0.1 mg/mL primocin (InvivoGen, cat. ant-pm-2), 10% defined fetal bovine serum, heat inactivated (HyClone Laboratories Inc., cat. SH30070.03HI), 50% L-WRN conditioned media (ATCC, cat. CRL-3276), 1.25 mM N-Acetyl-L-cysteine (Sigma-Aldrich, cat. A9165), 10 mM nicotinamide (Sigma-Aldrich, cat. N0636), 1X B-27 supplement (Thermo Fisher Scientific, cat. 17504044), 1X N-2 supplement (Thermo Fisher Scientific, cat. 17502048), 10 microM Y-27632 dihydrochloride (Tocris Bioscience, cat. 1254), and 50 ng/mL human EGF recombinant protein (Thermo Fisher Scientific, cat. PHG0311). The 485176-168-R4-J1-PDC line was cultured in Panc media, which includes all 6C/Colon 1B media components plus 100 ng/mL human FGF-10 (Thermo Fisher Scientific, cat. 100-26), 500 nM SB-431542 (Selleckchem, cat. S1067), and gastrin (Tocris, cat. 3006).
[…]

[1] = second compound 0.0316 µM, first compound 0.0316 µM
[2] = second compound 0.0316 µM, first compound 0.1 µM
[3] = second compound 0.0316 µM, first compound 0.316 µM
[4] = second compound 0.0316 µM, first compound 1 µM
[5] = second compound 0.0316 µM, first compound 3.16 µM
[6] = second compound 0.0316 µM, first compound 10 µM
[7] = second compound 0.1 µM, first compound 0.0316 µM
[8] = second compound 0.1 µM, first compound 0.1 µM
[9] = second compound 0.1 µM, first compound 0.316 µM
[10] = second compound 0.1 µM, first compound 1 µM
[11] = second compound 0.1 µM, first compound 3.16 µM
[12] = second compound 0.1 µM, first compound 10 µM
[13] = second compound 0.316 µM, first compound 0.0316 µM
[14] = second compound 0.316 µM, first compound 0.1 µM
[15] = second compound 0.316 µM, first compound 0.316 µM
[16] = second compound 0.316 µM, first compound 1 µM
[17] = second compound 0.316 µM, first compound 3.16 µM
[18] = second compound 0.316 µM, first compound 10 µM
[19] = second compound 1 µM, first compound 0.0316 µM
[20] = second compound 1 µM, first compound 0.1 µM
[21] = second compound 1 µM, first compound 0.316 µM
[22] = second compound 1 µM, first compound 1 µM
[23] = second compound 1 µM, first compound 3.16 µM
[24] = second compound 1 µM, first compound 10 µM
[25] = second compound 3.16 µM, first compound 0.0316 µM
[26] = second compound 3.16 µM, first compound 0.1 µM
[27] = second compound 3.16 µM, first compound 0.316 µM
[28] = second compound 3.16 µM, first compound 1 µM
[29] = second compound 3.16 µM, first compound 3.16 µM
[30] = second compound 3.16 µM, first compound 10 µM
[31] = second compound 10 µM, first compound 0.0316 µM
[32] = second compound 10 µM, first compound 0.1 µM
[33] = second compound 10 µM, first compound 0.316 µM
[34] = second compound 10 µM, first compound 1 µM
[35] = second compound 10 µM, first compound 3.16 µM
[36] = second compound 10 µM, first compound 10 µM

For COc1ncnc(C2CC2)c1-c1ncc2cnn(Cc3ccc(-c4nc(C(F)(F)F)cn4C(C)C)cc3)c2n1 + Cc1[nH]c2ccc(F)cc2c1-c1nc2c3cccnc3c3ncccc3c2[nH]1, the pIC50 (second compound 0.0316 µM) was under 5.00, the pIC50 (second compound 0.1 µM) was under 5.00 and the pIC50 (second compound 0.316 µM) was under 5.00. It also gave a pIC50 (second compound 1 µM) of over 7.50, a pIC50 (second compound 3.16 µM) of over 7.50 and a pIC50 (second compound 10 µM) of over 7.50. It also gave a viability, T/C [1] of 95.7%, a viability, T/C [2] of 79.5% and a viability, T/C [3] of 89.6%. The viability, T/C [4] was 89.9%, the viability, T/C [5] was 90.3% and the viability, T/C [6] was 93.2%. It also gave a viability, T/C [7] of 100%, a viability, T/C [8] of 74.6% and a viability, T/C [9] of 79.7%. For the same compound, the viability, T/C [10] was 80.7%, the viability, T/C [11] was 100% and the viability, T/C [12] was 71.2%. It also gave a viability, T/C [13] of 63.7%, a viability, T/C [14] of 51.8% and a viability, T/C [15] of 72.1%. For the same compound, the viability, T/C [16] was 62.4%, the viability, T/C [17] was 72.8% and the viability, T/C [18] was 46.1%. It also gave a viability, T/C [19] of 3.69%, a viability, T/C [20] of 3.51% and a viability, T/C [21] of 4.12%. It also gave a viability, T/C [22] of 3.46%, a viability, T/C [23] of 4.03% and a viability, T/C [24] of 3.74%. It also gave a viability, T/C [25] of 2.91%, a viability, T/C [26] of 3.63% and a viability, T/C [27] of 3.35%. The viability, T/C [28] was 3.99%, the viability, T/C [29] was 3.54% and the viability, T/C [30] was 2.75%. For the same compound, the viability, T/C [31] was 3.12%, the viability, T/C [32] was 4.19% and the viability, T/C [33] was 4.15%. It also gave a viability, T/C [34] of 3.3%, a viability, T/C [35] of 3.45% and a viability, T/C [36] of 2.6%.
In the case of O=c1[nH]cc(F)c(=O)[nH]1 + Cc1[nH]c2ccc(F)cc2c1-c1nc2c3cccnc3c3ncccc3c2[nH]1, the pIC50 (second compound 0.0316 µM) was 5.17, the pIC50 (second compound 0.1 µM) was 5.26 and the pIC50 (second compound 0.316 µM) was 5.40. The pIC50 (second compound 1 µM) was over 7.50, the pIC50 (second compound 3.16 µM) was over 7.50 and the pIC50 (second compound 10 µM) was over 7.50. The viability, T/C [1] was 104%, the viability, T/C [2] was 83.6% and the viability, T/C [3] was 103%. For the same compound, the viability, T/C [4] was 80.3%, the viability, T/C [5] was 82.6% and the viability, T/C [6] was 34.5%. It also gave a viability, T/C [7] of 96.1%, a viability, T/C [8] of 104% and a viability, T/C [9] of 84%. It also gave a viability, T/C [10] of 69.5%, a viability, T/C [11] of 80.8% and a viability, T/C [12] of 27.8%. For the same compound, the viability, T/C [13] was 79.6%, the viability, T/C [14] was 67.5% and the viability, T/C [15] was 77.1%. For the same compound, the viability, T/C [16] was 70.8%, the viability, T/C [17] was 55.4% and the viability, T/C [18] was 24.3%. The viability, T/C [19] was 5.37%, the viability, T/C [20] was 4.95% and the viability, T/C [21] was 4.49%. It also gave a viability, T/C [22] of 4.87%, a viability, T/C [23] of 5.05% and a viability, T/C [24] of 5.26%. For the same compound, the viability, T/C [25] was 4.5%, the viability, T/C [26] was 4.46% and the viability, T/C [27] was 5.38%. It also gave a viability, T/C [28] of 4.48%, a viability, T/C [29] of 5.61% and a viability, T/C [30] of 4.44%. For the same compound, the viability, T/C [31] was 4.32%, the viability, T/C [32] was 4.75% and the viability, T/C [33] was 4.71%. For the same compound, the viability, T/C [34] was 4.66%, the viability, T/C [35] was 4.72% and the viability, T/C [36] was 5.12%.
With CC1COCCN1c1cc(C2(S(C)(=N)=O)CC2)nc(-c2ccnc3[nH]ccc23)n1 (stereo unspecified) + Cc1cnc(CNC(=O)c2c(=O)c3ccc(N4CCCN(C)CC4)nc3n3c2sc2ccccc23)cn1 the pIC50 (second compound 0.0316 µM) was 6.69, the pIC50 (second compound 0.1 µM) was over 7.50 and the pIC50 (second compound 0.316 µM) was over 7.50. For the same compound, the pIC50 (second compound 1 µM) was over 7.50, the pIC50 (second compound 3.16 µM) was over 7.50 and the pIC50 (second compound 10 µM) was over 7.50. It also gave a viability, T/C [1] of 71.7%, a viability, T/C [2] of 62.6% and a viability, T/C [3] of 43.3%. It also gave a viability, T/C [4] of 15.1%, a viability, T/C [5] of 31.4% and a viability, T/C [6] of 5.8%. It also gave a viability, T/C [7] of 35.4%, a viability, T/C [8] of 36% and a viability, T/C [9] of 16.5%. It also gave a viability, T/C [10] of 10.8%, a viability, T/C [11] of 12.8% and a viability, T/C [12] of 4.75%. It also gave a viability, T/C [13] of 26.8%, a viability, T/C [14] of 20.6% and a viability, T/C [15] of 13.7%. It also gave a viability, T/C [16] of 7.83%, a viability, T/C [17] of 13.6% and a viability, T/C [18] of 4.61%. For the same compound, the viability, T/C [19] was 13.3%, the viability, T/C [20] was 17.7% and the viability, T/C [21] was 13.3%. The viability, T/C [22] was 8.94%, the viability, T/C [23] was 11.2% and the viability, T/C [24] was 6.04%. For the same compound, the viability, T/C [25] was 11.9%, the viability, T/C [26] was 10.2% and the viability, T/C [27] was 10.9%. For the same compound, the viability, T/C [28] was 8.09%, the viability, T/C [29] was 10.3% and the viability, T/C [30] was 5.89%. It also gave a viability, T/C [31] of 9.84%, a viability, T/C [32] of 9.08% and a viability, T/C [33] of 9.32%. It also gave a viability, T/C [34] of 8.94%, a viability, T/C [35] of 9.55% and a viability, T/C [36] of 4.74%.
